Measurements taken from patent publication US12390430B1 (SpringWorks Therapeutics, Inc., priority 2024, dated 2025).
Read-outs that look alike come from different tables or passages of the source.

What was measured:
[1] = Clinical pharmacokinetics of mirdametinib (Table A); format: in vivo, human; details: for Tmax / AUC(0-t) / Cmax: human, plasma; for Tmax: oral, read-out: Tmax [median (range)]; for AUC(0-t) / Cmax: po, steady state, BID oral dosing; for AUC(0-t): read-out: Steady-state exposure AUClast [geometric mean (geometric % CV)]; for Cmax: read-out: Steady-state exposure Cmax [geometric mean (geometric % CV)]
Procedure: Study treatment was administered orally at a twice daily (BID) dose specified in the table below. Dosing was on a 28-day Cycle (4-week course) with a 3 week on/1 week off schedule. The treatment period will last for up to 24 Cycles followed by a 30-day Safety Follow-Up period.

[2] = Human plasma protein binding; format: in vitro ADME
[3] = Excretion of radioactivity and unchanged mirdametinib; format: in vivo
[4] = geometric least squares mean ratio
[5] = pediatric patients (2 to <18 years)

Question: Which results are given for `O=C(NOC[C@H](O)CO)c1ccc(F)c(F)c1Nc1ccc(I)cc1F` (single isomer, unassigned) [mirdametinib]?
Answer: Food effect on AUCinf [GMR% (90% CI)] [1, 4]: 93% (90%, 96%); Food effect on Cmax [GMR% (90% CI)] [1, 4]: 57% (54%, 61%); Tmax ([1]; capsule): 64.8 min; Tmax ([1]; tablet): 49.8 min; AUC(0-t) ([1]; adult patients (>18 years)): 431 ng·h/mL; Cmax ([1]; adult patients (≥18 years)): 188 ng/mL; AUC(0-t) [1, 5]: 459 ng·h/mL; Cmax [1, 5]: 191 ng/mL; fraction unbound [2]: < 0.01; Excretion: radioactivity in feces ([3]; feces): In feces: 27%; Excretion: radioactivity in urine ([3]; urine): In urine: 68%; Excretion: unchanged mirdametinib in urine ([3]; urine): In urine: 0.7%; Excretion: unchanged mirdametinib in urine and feces ([3]; urine and feces): In urine and feces: 9%
